Measured values: patent US11220521B2, “Optically-active 2-amino-phosphonoalkane acid, optically-active 2-amino-phosphonoalkane acid salt, and hydrates of these” (priority 2017, dated 2022)

How the values were obtained:
[1] = tested on: normal human epidermal cells; assay: Evaluation for glutathione production promoting activity (total glutathione amount, glutathione reductase recycling assay); type: cell-based; settings: for GSH (pmol/μg-protein) Mean ± S.D.: 24-hour cultivation, n=4; for glutathione production promoting activities compared with Nahlsgen: summary of Tables 5-1 and 5-2
Experimental: D-2-Amino-8-phosphonooctanoic acid monohydrate obtained in Example 8, which was used as a sample, was evaluated for glutathione production promoting activity by the following method (n=4).
Specifically, normal human epidermal cells were seeded in a 96-well microplate at a density of 2.0×10^4 cells per 96 wells, using a normal human epidermal keratinocyte growth medium HuMedia KG2 (trade name, supplied by Kurabo Industries Ltd.).
After 24 hours from the seeding, the medium was exchanged with a normal human epidermal keratinocyte growth medium HuMedia KB2 (trade name, supplied by Kurabo Industries Ltd.) containing the sample in a predetermined concentration, and the cultivation was continued. As a blank, the cells were cultured by a procedure similar to above, except for not using the sample.
After 24-hour cultivation, the cells were disrupted by ultrasonication using a phosphate buffer containing 100 μM phenylmethylsulfonyl fluoride, and the total glutathione amount was determined by glutathione reductase recycling assay.
Specifically, a suspension of the disrupted cells were mixed with reduced nicotinamide adenine dinucleotide phosphate and glutathione reductase, followed by reaction at 37° C. for 10 minutes.
Next, 0.1 M phosphate buffer (containing 0.5 M EDTA, pH 7.5) containing dissolved 10 mM 5,5′-dithiobis(2-nitrobenzoic acid) was added, and the mixture was incubated for 30 minutes. The absorbance at 450 nm was measured immediately after addition, and after incubation for 30 minutes. The difference in absorbance, which is calculated by subtracting the absorbance immediately after addition from the absorbance after 30-minute incubation, was defined as an index for glutathione synthesis quantity.
The total glutathione amount in the disrupted cell suspension was determined on the basis of a calibration curve plotted using oxidized glutathione. The protein content in the disrupted cell suspension was determined using the Pierce Microplate BCA Protein Assay Kit (Thermo SCIENTIFIC). The glutathione synthesis quantity was evaluated for differences from the untreated specimen (blank) and from the positive object by a significant difference test using Student's t-test. The results of the tests, each of which was performed two times, are given in Tables 4-1 (first test) and 4-2 (second test).
Tests were performed (n=4) to determine glutathione production promoting activity by a procedure similar to above, except for using, as a sample instead of D-2-amino-8-phosphonooctanoic acid monohydrate, D-2-amino-4-phosphonobutanoic acid L-Arg salt obtained in Example 2, or D-2-amino-4-phosphonobutanoic acid D-Arg salt monohydrate obtained in Example 3.
A test as a referential example was also performed by a procedure similar to above, except for using Nahlsgen (generic name: DL-2-amino-4-[(RSp)-(3-carboxymethylphenoxy) (methoxy)phosphoryl]butanoic acid), instead of the sample.

[2] = room temperature; amorphous powdery solid obtained through lyophilization; cited from earlier work
[3] = biological target: gamma-glutamyl transpeptidase (GGT) (Homo sapiens, UniProt P19440); settings: known from Patent Literature (PTL) 1; cited from earlier work
[4] = Table 5-1, first test, 2.00 μmol/L
[5] = Table 5-1, first test, 10.00 μmol/L
[6] = Table 5-1, first test, 50.00 μmol/L
[7] = Table 5-1, first test, 250.00 μmol/L
[8] = Table 5-2, second test, 2.00 μmol/L
[9] = Table 5-2, second test, 10.00 μmol/L
[10] = Table 5-2, second test, 50.00 μmol/L
[11] = Table 5-2, second test, 250.00 μmol/L

Chain of gamma-glutamyl transpeptidase (GGT) (P19440 whole entry, species assumed): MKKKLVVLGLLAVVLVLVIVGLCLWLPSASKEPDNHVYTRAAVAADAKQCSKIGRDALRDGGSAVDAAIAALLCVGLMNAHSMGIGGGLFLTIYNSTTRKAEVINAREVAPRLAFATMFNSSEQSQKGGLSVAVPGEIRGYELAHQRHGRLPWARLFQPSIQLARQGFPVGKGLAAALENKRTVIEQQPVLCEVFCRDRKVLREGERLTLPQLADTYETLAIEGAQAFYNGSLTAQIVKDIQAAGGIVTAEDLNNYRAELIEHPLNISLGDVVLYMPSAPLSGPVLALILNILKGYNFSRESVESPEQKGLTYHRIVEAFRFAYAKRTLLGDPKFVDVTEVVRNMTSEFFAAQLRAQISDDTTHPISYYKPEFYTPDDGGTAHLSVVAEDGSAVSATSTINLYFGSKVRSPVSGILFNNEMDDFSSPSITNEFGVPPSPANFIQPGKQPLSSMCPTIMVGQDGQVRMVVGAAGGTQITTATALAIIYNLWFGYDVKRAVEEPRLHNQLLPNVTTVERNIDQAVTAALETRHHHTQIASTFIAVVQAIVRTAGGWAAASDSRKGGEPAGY

Structure (SMILES): N=C(N)NCCC[C@@H](N)C(=O)O.N[C@H](CCP(=O)(O)O)C(=O)O.O [D-2-amino-4-phosphonobutanoic acid D-Arg salt monohydrate]
- GSH (pmol/μg-protein) Mean ± S.D. [1, 4]: 38.6 ± 3.1 pmol/μg-protein
- GSH (pmol/μg-protein) Mean ± S.D. [1, 5]: 46.2 ± 1.8 pmol/μg-protein
- GSH (pmol/μg-protein) Mean ± S.D. [1, 6]: 36.3 ± 4.0 pmol/μg-protein
- GSH (pmol/μg-protein) Mean ± S.D. [1, 7]: 40.9 ± 8.1 pmol/μg-protein
- GSH (pmol/μg-protein) Mean ± S.D. [1, 8]: 35.8 ± 1.1 pmol/μg-protein
- GSH (pmol/μg-protein) Mean ± S.D. [1, 9]: 35.8 ± 1.2 pmol/μg-protein
- GSH (pmol/μg-protein) Mean ± S.D. [1, 10]: 37.3 ± 1.9 pmol/μg-protein
- GSH (pmol/μg-protein) Mean ± S.D. [1, 11]: 37.1 ± 1.7 pmol/μg-protein
- glutathione production promoting activities compared with Nahlsgen [1]: significant glutathione production promoting activities comparable to or higher than those of Nahlsgen

Structure (SMILES): N=C(N)NCCC[C@H](N)C(=O)O.N[C@H](CCP(=O)(O)O)C(=O)O [D-2-amino-4-phosphonobutanoic acid L-Arg salt]
- GSH (pmol/μg-protein) Mean ± S.D. [1, 4]: 49.2 ± 7.5 pmol/μg-protein
- GSH (pmol/μg-protein) Mean ± S.D. [1, 5]: 51.0 ± 1.6 pmol/μg-protein
- GSH (pmol/μg-protein) Mean ± S.D. [1, 6]: 43.9 ± 9.3 pmol/μg-protein
- GSH (pmol/μg-protein) Mean ± S.D. [1, 7]: 42.9 ± 9.8 pmol/μg-protein
- GSH (pmol/μg-protein) Mean ± S.D. [1, 8]: 37.6 ± 2.2 pmol/μg-protein
- GSH (pmol/μg-protein) Mean ± S.D. [1, 9]: 35.4 ± 2.1 pmol/μg-protein
- GSH (pmol/μg-protein) Mean ± S.D. [1, 10]: 37.2 ± 3.0 pmol/μg-protein
- GSH (pmol/μg-protein) Mean ± S.D. [1, 11]: 36.3 ± 1.5 pmol/μg-protein
- glutathione production promoting activities compared with Nahlsgen [1]: significant glutathione production promoting activities comparable to or higher than those of Nahlsgen

Structure (SMILES): COP(=O)(CCC(N)C(=O)O)Oc1cccc(CC(=O)O)c1 (racemic) [Nahlsgen, DL-2-amino-4-[(RSp)-(3-carboxymethylphenoxy)(methoxy)phosphoryl]butanoic acid, reference compound]
- deliquescency / decomposition on storage [2]: deliquescent and is liable to decompose at room temperature
- GSH (pmol/μg-protein) Mean ± S.D. [1, 5]: 44.7 ± 2.7 pmol/μg-protein
- GSH (pmol/μg-protein) Mean ± S.D. [1, 9]: 36.2 ± 3.4 pmol/μg-protein
- GSH (pmol/μg-protein) Mean ± S.D. [1, 10]: 36.5 ± 3.9 pmol/μg-protein
- GGT inhibitor activity [3]: excellent gamma-glutamyl transpeptidase (GGT) inhibitor

Structure (SMILES): N[C@H](CCCCCCP(=O)(O)O)C(=O)O.O [D-2-amino-8-phosphonooctanoic acid monohydrate]
- GSH (pmol/μg-protein) Mean ± S.D. ([1]; Table 4-1, first test, 2.00 μmol/L): 59.5 ± 2.0 pmol/μg-protein
- GSH (pmol/μg-protein) Mean ± S.D. ([1]; Table 4-1, first test, 10.00 μmol/L): 60.6 ± 2.3 pmol/μg-protein
- GSH (pmol/μg-protein) Mean ± S.D. ([1]; Table 4-1, first test, 50.00 μmol/L): 59.7 ± 8.5 pmol/μg-protein
- GSH (pmol/μg-protein) Mean ± S.D. ([1]; Table 4-1, first test, 250.00 μmol/L): 61.0 ± 3.0 pmol/μg-protein
- GSH (pmol/μg-protein) Mean ± S.D. ([1]; Table 4-2, second test, 2.00 μmol/L): 35.3 ± 1.7 pmol/μg-protein
- GSH (pmol/μg-protein) Mean ± S.D. ([1]; Table 4-2, second test, 10.00 μmol/L): 34.8 ± 1.9 pmol/μg-protein
- GSH (pmol/μg-protein) Mean ± S.D. ([1]; Table 4-2, second test, 50.00 μmol/L): 34.8 ± 2.6 pmol/μg-protein
- GSH (pmol/μg-protein) Mean ± S.D. ([1]; Table 4-2, second test, 250.00 μmol/L): 33.6 ± 2.3 pmol/μg-protein
- glutathione production promoting activity as compared with the blank ([1]; summary of Tables 4-1 and 4-2, versus untreated specimen): significant glutathione production promoting activity

Structure (SMILES): N[C@@H](CCCCCCP(=O)(O)O)C(=O)O.O (hydrate or solvate)
- melting point: 73 °C

Structure (SMILES): N[C@H](CCCCCCP(=O)(O)O)C(=O)O.O (hydrate or solvate) [D-2-amino-8-phosphonooctanoic acid monohydrate]
- melting point: 75.3 °C
